In patent publication US20090192226A1, “Materials and Methods for Treatment of Pathological Ocular Vascular Proliferation” (priority 2007, published 2009):
Residues, ends and D or L forms follow the SMILES beside them.

How the values were obtained:
[1] = tested on: pups undergoing the OIR model; experiment: OIR model in pups, oral gavage: pre-retinal neovascularization, vaso-obliteration, vascular density; assay type: in vivo, mouse; conditions: for reduction in pre-retinal neovascularization relative to vehicle / area of vaso-obliteration: OIR pups; for reduction in pre-retinal neovascularization relative to vehicle: gavaged twice daily P12-P17, H&E cross-sections on P17; for area of vaso-obliteration: gavaged twice daily P12-P17, assessed in P17 pups, vehicle 30.4±7.9%
Source text: Retinopathy of prematurity (ROP) is the major cause of blindness in children. Supplementation with arginine or glutamine results in improved clinical outcomes in premature infants. In this study the protective effect of oral administration of Arg-Gln alone and in combination with DHA was examined in pups undergoing the OIR model. METHODS: Nursing dams and pups were returned to normal room air on P12 (postnatal day 12) and gavaged twice daily with: Arg-Gln, DHA, Arg-Gln+DHA or vehicle (P12-P17). Normoxic pups were treated in an identical manner. On P17 the pups were perfused with FITC-labeled dextran. One eye was embedded in paraffin, cross-sectioned and H&E (hematoxylin and eosin) stained for analysis of pre-retinal neovascularization. The retina from the second eye was removed and underwent microscopic analysis for the vessel regrowth, which was evaluated by vessel density.

[2] = tested on: retinal cell culture model; experiment: retinal cell culture model, transepithelial resistance (TER); assay type: cell-based
[3] = tested on: vascular endothelial growth factor (VEGF); experiment: retinal cell culture model, vascular endothelial growth factor (VEGF); assay type: cell-based

## CC/C=C\C/C=C\C/C=C\C/C=C\C/C=C\C/C=C\CCC(=O)O [DHA, decosahexaenoic acid]
[1]
  reduction in pre-retinal neovascularization relative to vehicle: 45±2%
  area of vaso-obliteration: 3.6±1.3%

## N=C(N)NCCC[C@H](N)C(=O)N[C@@H](CCC(N)=O)C(=O)O [Arg-Gln dipeptide, arginyl-glutamine] (H-Arg-Gln-OH)
[2]
  transepithelial resistance (TER): increased
[1]; OIR mouse model, conclusions
  pre-retinal neovascularization (result in words): dramatically inhibited
  vaso-obliteration (result in words): reduced
[1]; OIR pups following hyperoxia exposure, P17, compared to vehicle treated and normoxic pups
  intra-retinal vascular density, a measure of vascular regrowth: restored
[1]
  reduction in pre-retinal neovascularization relative to vehicle: 35±1%
  area of vaso-obliteration: 4.8±1.0%
[3]
  vascular endothelial growth factor (VEGF): decreased
